# In article PMC9532478, “A Novel CTLA-4 affinity peptide for cancer immunotherapy by increasing the integrin αvβ3 targeting” (Discover. Oncology, 2022):
# Ends that are not written are not given here.
# B1: LC8 (peptide)
# peptide: RHHSSNPRDTAP
# notes: 12-mer selected from the Ph.D.-12 phage display peptide library on hCTLA-4; source: synthetic peptide (solid phase Fmoc synthesis, RP-HPLC)
# B2: LC3 (peptide)
# peptide: SWHWHTHVRHQM
# notes: as for B1
# B3: LC4 (peptide)
# peptide: WGHSHFSHWKGR
# notes: 12-mer selected from the Ph.D.-12 phage display peptide library on hCTLA-4; also called LC4 peptide; source: synthetic peptide (solid phase Fmoc synthesis, RP-HPLC)
# B4: LC7 (peptide)
# peptide: LDRPSSLAHLAS
# notes: as for B1
# What was measured:
# hCTLA-4 protein [1] = biological target: T1, hCTLA-4 protein (Homo sapiens, UniProt P16410); assay: MST affinity of CTLA-4 binding peptides to hCTLA-4 protein; details: Monolith NT.115, Red-NHS647 dye-labelled protein, peptides from 400 μmol/L, 16 twofold dilutions, room temperature 5 min
# T1 sequence (P16410 36-223): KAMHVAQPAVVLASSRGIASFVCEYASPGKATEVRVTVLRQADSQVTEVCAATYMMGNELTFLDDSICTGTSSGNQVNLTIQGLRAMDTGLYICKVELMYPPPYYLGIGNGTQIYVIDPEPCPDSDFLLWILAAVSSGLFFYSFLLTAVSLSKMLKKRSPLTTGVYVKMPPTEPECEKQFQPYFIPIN
# Description: The CTLA-4 binding peptides were first diluted to 400 μmol/L with MST buffer, and twofold serial dilutions were carried out to obtain 16 concentration gradients subsequently. Equal Red-NHS647 dye-labelled protein and peptide volumes were incubated at room temperature for 5 min, the mixture was loaded onto standard capillaries (NanoTemper Technologies GmhH), and immediately placed in an MST instrument for detection. The dissociation constant (Kd) was determined using the NanoTemper analysis software MO. Affinity Analysis v2.2.4.
# CT26 tumour = assay: CT26 tumour-bearing mice, peritumoral LC4; assay type: in vivo
# Description: BALB/c mice were subcutaneously injected with 2 × 10^5 syngeneic CT26 cells to establish colorectal cancer xenograft model. The mice were divided into control group, LC4 (1 mg / kg) group and LC4 (4 mg / kg) group when the tumor grew to 40–80 mm.^3, peritumoral administration for 14 days. Statistical graph of A tumor volumes and B body weight of LC4 (1 mg / kg) group, LC4 (4 mg / kg) group and control group. Data are expressed as the mean ± SD (n = 5) and statistical significance between groups was determined by Student’s t test: *p < 0.05, ***p < 0.001
# Fig. 6 The LC4 activation on T cells was determined in vivo. […] Data are expressed as the mean ± SD (n = 5) and statistical significance between groups was determined by Student’s t test: *p < 0.05, **p < 0.01, ***p < 0.001, ****p < 0.0001; ns = no significance TEXT PRINTED IN THE PICTURE: (A) LC4: Tumor CD3^+CD8^+(%): 6.86 (1mg/kg); Tumor CD3^+CD8^+(%): 19.3 (4mg/kg) | (B) LC4: Spleen CD8^+IFN-γ^+(%): 42.9 (1mg/kg); Spleen CD8^+IFN-γ^+(%): 42.5 (4mg/kg) | (C) LC4: Spleen CD4^+IFN-γ^+(%): 15.6 (1mg/kg); Spleen CD4^+IFN-γ^+(%): 14.2 (4mg/kg) | (D) LC4: DLN CD8^+IFN-γ^+(%): 45.8 (1mg/kg); DLN CD8^+IFN-γ^+(%): 56 (4mg/kg) | (E) LC4: DLN CD4^+IFN-γ^+(%): 2.31 (1mg/kg); DLN CD4^+IFN-γ^+(%): 2.83 (4mg/kg) DOUBTS OF THE COPYIST ABOUT THIS PICTURE: The gate numbers in the flow cytometry plots are printed without a measure or unit. […]
# hCTLA-4 protein [2] = biological target: T2, hCTLA-4 protein (human, UniProt P16410 36-161); assay: MST; Monolith NT.115; peptides first diluted to 400 μmol/L in MST buffer, 16 twofold dilutions; equal volumes of Red-NHS647 dye-labelled protein and peptide, room temperature 5 min, standard capillaries; details: both partners purified
# T2 construct: human CTLA-4 protein, soluble recombinant protein; The MST methods speak of a 'Red-NHS647 dye-labelled protein' without naming it; also called human CTLA-4 protein
# T2 sequence (looked up): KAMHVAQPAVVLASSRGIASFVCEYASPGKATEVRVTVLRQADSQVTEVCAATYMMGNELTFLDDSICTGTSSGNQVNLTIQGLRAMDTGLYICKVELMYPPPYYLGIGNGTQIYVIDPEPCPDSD
molecule,measurement,setting,value
ASANDNRLRYTY [LC6],Kd,hCTLA-4 protein [1],> 200 µM
RWKDTAYALTNN [LC1],Kd,hCTLA-4 protein [1],> 200 µM
WGHSHFSHWKGR [LC4],effect on weight of mice (in words),"CT26 tumour; 1 mg/kg/day or 4 mg/kg/day, peritumoral, 14 days, n = 5",no significant effect on the weight of mice
same,"pathological changes in heart, liver, lung, kidney (H&E staining, in words)","CT26 tumour; mouse, in vivo",No obvious pathological changes
SHRWQVWSRDRA [LC5],Kd,hCTLA-4 protein [1],> 200 µM
HHLRIPYALDQT [LC2],Kd,hCTLA-4 protein [1],> 200 µM
B1,Kd,hCTLA-4 protein [2],8.82 ± 0.69 µM
B2,Kd,hCTLA-4 protein [2],0.04 ± 0.01 µM
B3,Kd,hCTLA-4 protein [2],6.86 ± 2.63 µM
B4,Kd,hCTLA-4 protein [2],2.14 ± 0.69 µM
